Values quoted from earlier work as cited in patent US11642396B2 (priority 2013, dated 2023).

System: H7N9 infection
Settings: human, in vivo

## CCOC(=O)C1=C[C@@H](OC(CC)CC)[C@H](NC(C)=O)[C@@H](N)C1 [oseltamivir]
  viral load in the respiratory tract of patients: reduce the viral load
